In patent US4963553A, “4-[(substituted) alkylcarbonyl]-4,5-dihydro- and -4,5,6,7-tetrahydro-7-[(substituted)phenyl]pyrazolo[1,5-a]pyrimidines” (American Cyanamid Co., priority 1988, dated 1990):
Where a name gives a salt, the structure may show the parent alone.

Legend:
[1] = target: T1, human platelet membranes (3H-imipramine receptor) (Homo sapiens, UniProt P31645); assay: 3H-imipramine binding to human platelet membranes
T1 construct: Fresh human platelet concentrates (less than 48 hours old) were obtained from the New York Blood Center; tissue New York Blood Center; host or cells: human blood platelets, membranes
Protocol: The activity of the compounds of the invention as antidepressant agents was further verified# in the following test which measures the ability of a test compound to inhibit 3H-imipramine binding to human platelet membranes.
Platelet membranes were obtained using the procedure described by Wennogle, L. et al., Pharmac. Biochem. Behav., 15. 975 (1981). Fresh human platelet concentrates (less than 48 hours old) were obtained from the New York Blood Center. These concentrates were prepared in a citrate-dextrose anticoagulant using standard techniques. Platelets were washed twice by centrifugation (2500×G, 10 minutes) in 50 volumes of an antiprotease buffer containing 0.005M Tris potassium chloride, 0.12M sodium chloride, 0.05M Tris pH 7.5, 0.025 Units/ml aprotinin, 0.05 μg/m pepstatin, 2×10^-5 bacitracin, 3 mM ethylenediaminetetraacetic acid and 1.0 mM ethyleneglycol-bis (β-aminoethylether)N,N'-tetra-acetic acid. […] All procedures were conducted at 0° C. using plastic laboratory-ware throughout the platelet membrane preparation. Platelets were resuspended in 20 volumes of buffer and sonicated 3 times using 10 second bursts of a Branson sonifier (cell disrupter 350) at setting 6 (standard 3/4 inch horn), keeping the sample on ice throughout the procedure. Platelet membranes were then washed twice at 18,000×G for 20 minutes with 50 volumes of the antiprotease buffer and resuspended to 3.0 mg. protein/ml using the Bradford protein analysis with bovine gamma globulin as standard. Membranes were used immediately or stored frozen in liquid nitrogen.
The displacement of 3H-imipramine binding to human platelet membranes was performed essentially as described by Paul, S. M., et al., Life Sci., 953 (1980) with the following modifications. Membranes (0.3 mg protein) were suspended in antiprotease buffer with both […] 3H-imipramine (New England Nuclear) and displacing drug or buffer in a total volume of 250 #1 in glass test tubes. Samples were incubated for 90 minutes at 0° C., then diluted to 5 ml in 0.12M sodium chloride, 0.005M potassium chloride, 0.05M Tris pH 7.5 (wash buffer) and immediately filtered through GF/B Whatman Filters and washed twice with 5 ml of wash buffer. Filters were counted in a liquid scintillation counter after addition of Beckman HP Scintillant.
Non-specific binding of 3H-imipramine was defined as that fraction (generally 35%) of radioactivity that was not displaced by 10 μM desmethylimipramine. Specific binding was determined by subtraction of this non-specific level from values for total 3H-imipramine binding which were measured by incubating 3H-imipramine in the absence of displacing drug. Compounds were tested in duplicate test tubes at a concentration of 10 μM. Compounds which inhibited binding by more than 50% were considered to be active.

[2] = test system: Brain-Specific Receptors of Rats (3H-benzodiazepine binding); assay: Inhibition of the binding of 3H-benzodiazepine to brain-specific receptors of rats; design: species or system rat (Wistar strain, whole cortex); details: rat cortex P2 fraction, 3H-diazepam 1.5 nM or 3H-flunitrazepam 1.0 nM
Description: Another test utilized for the determination of anxiolytic activity is the measurement of the ability of a test compound to inhibit the binding of tritiated benzodiazepines to brain-specific receptors of mammals. A modification of the method described by R. F. Squires, et al., Nature, 266 (21), 732 (Apr., 1977) and H. Mohler, et al., Science, 198, 849 (1977) was employed. […] The test compounds were solubilized in dimethylformamide, acetic acid, ethanol or hydrochloric acid. […] (1) resuspended in twice the original volume in hypotonic 50 mM Tris.HCl (pH 7.4), or (2) resuspended in one-half the original volume in hypotonic 10 mM Tris.HCl (pH 7.4) and frozen (-20° C.) until time. of use. Frozen P2 preparations were thawed and resuspended in four times the original homogenizing volume at time of assay. […] Incubation for 30 minutes proceeded in ice and was terminated by filtration, under vacuum, through glass fiber filters. The filters were washed twice with 5 ml of ice-cold 50 mM Tris.HCl (pH 7.4) and placed in scintillation vials. After drying at 50°-60° C. for 30 minutes, 10 ml of diluent was added and the radioactivity determined in a scintillation counter. Inhibition of binding was calculated by the difference between total binding and binding in the presence of test compound, divided by the total binding, X 100.

[3] = test system: Spontaneously Hypertensive Rats; assay: Hypotensive activity: mean arterial blood pressure in spontaneously hypertensive rats; format: in vivo, rat (Okamoto strain, male); details: SHR, gavage, 100 mg/kg or less, two doses 24 h apart, measured at 28 hours; average MABP of rats used 160±1.5 mm
Protocol: The novel compounds of the invention are active hypotensive agents at nontoxic doses when administered to mammals. These compounds were tested for hypotensive activity by the method of P. S. Chan and D. W. Poorvin, Clinical and Experimental Hypertension, (6), 817-830 (1979). Male, 16 week old, spontaneously hypertensive rats of the Okamoto strain (Taconic Farms, Germantown, N.Y.) having an average means arterial blood pressure of 160±1.5 mm of mercury are used in the test. A rat is dosed by gavage with a test compound, suspended in 2% pre-boiled starch at a concentration of 50 mg/ml, at a dose of 100 mg/kg of body weight or less, with 0.9% sodium chloride loading at a dose of 25 ml/kg of body weight. A second identical dose of the test compound, without sodium chloride loading is given 24 hours later. At 28 hours after the initial dose the mean arterial blood pressure is measured by the method of Chan and Poorvin vide supra.

[4] = test system: mice (hypoxic environment); assay: Hypoxic survival test; format: in vivo, mouse (Royal Hart); details: Mus musculus, ip, 5 min, intraperitoneal, 10% oxygen, 5 minutes, read-out: % Survivors
Protocol: The hypoxic survival test is a useful in vivo test for measuring the effectiveness of central nervous system-acting drugs in enhancing survival in an hypoxic environment relative to the known parasympathomimetic agent physostigmine.
Drugs are tested by intraperitoneal injection of groups of mice 30 minutes prior to placing them in an hypoxic environment and measuring survival. The rationale of this test is that drugs which enhance survival under hypoxic conditions without concomitant depression or sedative side effects, do so by enhancing brain metabolism, i.e., by improving energy supply relative to demand and so preserving normal brain function under conditions of reduced energy metabolism. Considering the dependence of the brain on a constant supply of energy, drugs which have this property may have many far-reaching therapeutic indications, including aiding recovery from stroke and closed head injury and reducing the deleterious effects of age-related central nervous system deficits.
In the hypoxic survival test, groups of 20 Royal Hart mice (6 weeks of age) were injected intraperitoneally with a test compound in saline at various doses ranging from 1 to 200 mg/kg, 30 minutes prior to placing them in an hypoxic mixture (10% oxygen, 90% […]) and measuring survival after 5 minutes.
A control group of 20 mice was injected intraperitoneally with saline (0.01 ml/g of body weight) and processed as described above.
Another group of 20 mice was injected intraperitoneally with 0.125 mg/kg of physostigmine in saline and processed as described above.

T1 sequence (P31645 whole entry): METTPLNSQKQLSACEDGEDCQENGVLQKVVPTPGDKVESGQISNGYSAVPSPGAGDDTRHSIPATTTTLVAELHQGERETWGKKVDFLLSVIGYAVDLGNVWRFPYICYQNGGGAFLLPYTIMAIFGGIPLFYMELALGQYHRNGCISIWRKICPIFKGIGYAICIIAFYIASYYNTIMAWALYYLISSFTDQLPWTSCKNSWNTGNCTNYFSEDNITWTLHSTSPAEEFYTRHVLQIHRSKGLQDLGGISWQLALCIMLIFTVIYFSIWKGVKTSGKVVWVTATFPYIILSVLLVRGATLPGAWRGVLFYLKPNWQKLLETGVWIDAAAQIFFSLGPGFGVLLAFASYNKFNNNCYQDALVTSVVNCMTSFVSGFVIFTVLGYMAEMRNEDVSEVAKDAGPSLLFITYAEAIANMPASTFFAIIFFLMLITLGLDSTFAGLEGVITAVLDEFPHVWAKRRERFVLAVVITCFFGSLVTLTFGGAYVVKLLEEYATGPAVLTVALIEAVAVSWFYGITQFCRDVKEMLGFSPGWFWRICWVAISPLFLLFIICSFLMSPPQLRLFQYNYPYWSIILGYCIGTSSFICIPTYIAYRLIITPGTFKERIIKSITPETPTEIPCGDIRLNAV

Work on `N#Cc1cnn2c1N(C(=O)CCN1CCN(Cc3ccccc3)CC1)CC=C2c1cccc(C(F)(F)F)c1` [Example 27, 4,5-Dihydro-4-[1-oxo-3-[4-(phenylmethyl)-1-piperazinyl]propyl]-7-[3-(trifluoromethyl)phenyl]pyrazolo[1,5-a]pyrimidine-3-carbonitrile] yielded an inhibition at 10 µM [1] of 80%.

`CN(C)CCCN1CCN(CC(=O)N2CC=C(c3cccc(C(F)(F)F)c3)n3ncc(C#N)c32)CC1` [Example 33, 4-[[4-[3-(Dimethylamino)propyl]-1-piperazinyl]acetyl]-4,5-dihydro-7-[3-(trifluoromethyl)phenyl]pyrazolo[1,5-a]pyrimidine-3-carbonitrile] showed an inhibition at 10 µM [1] of 89%.

For `N#Cc1cnn2c1N(C(=O)CN1CCN(CC(=O)N3CCOCC3)CC1)CC=C2c1cccc(C(F)(F)F)c1` [Example 36, 4,5-Dihydro-4-[[4-[2-(4-morpholinyl)-2-oxoethyl]-1-piperazinyl]acetyl]-7-[3-(trifluoromethyl)phenyl]pyrazolo[1,5-a]pyrimidine-3-carbonitrile], the “% Inhibition (3H-benzodiazepine binding)” value [2] was 41% and the “MABP/mmHg (mean arterial blood pressure)” value [3] was 129 mmHg.

`CC(C)NC(=O)CN1CCN(CC(=O)N2CC=C(c3cccc(C(F)(F)F)c3)n3ncc(C#N)c32)CC1` [Example 37] was tested, and the “% Inhibition (3H-benzodiazepine binding)” value [2] was 41% and the “MABP/mmHg (mean arterial blood pressure)” value [3] was 129 mmHg.

`N#Cc1cnn2c1N(C(=O)CN1CCN(Cc3ccc(Cl)cc3)CC1)CC=C2c1cccc(C(F)(F)F)c1` [Example 39, 4-[[4-[(4-Chlorophenyl)methyl]-1-piperazinyl]acetyl]-7-[3-(trifluoromethyl)phenyl]pyrazolo[1,5-a]pyrimidine-3-carbonitrile] gave an inhibition at 10 µM [1] of 84%.

In the case of `N#Cc1cnn2c1N(C(=O)CN1CCN(Cc3ccccc3)CC1)CCC2c1cccc(C(F)(F)F)c1` (stereo not drawn) [Example 46, 4,5,6,7-Tetrahydro-4-[[4-(phenylmethyl)-1-piperazinyl]acetyl]-7-[3-(trifluoromethyl)phenyl]pyrazolo[1,5-a]pyrimidine-3-carbonitrile], the “% Inhibition (3H-benzodiazepine binding)” value [2] was 14% and the responders at 100 mg/kg ([4]; 100 mg/kg) was 80%.

`N#Cc1cnn2c1N(C(=O)CN1CCN(CCCOc3ccccc3)CC1)CCC2c1cccc(C(F)(F)F)c1` (stereo not drawn) [Example 57, 4,5,6,7-Tetrahydro-4-[[4-(3-phenoxypropyl)-1-piperazinyl]acetyl]-7-[3-(trifluoromethyl)phenyl]pyrazolo[1,5-a]pyrimidine-3-carbonitrile] was tested, and the inhibition at 10 µM [1] was 57% and the responders at 10 mg/kg ([4]; 10 mg/kg) was 15%.

`N#Cc1cnn2c1N(C(=O)CCN1CCN(Cc3ccccc3)CC1)CC=C2c1cc(Cl)ccc1Cl` [Example 71, 7-(2,5-Dichlorophenyl)-4,5-dihydro-4-[1-oxo-3-[4-(phenylmethyl)-1-piperazinyl]propyl]pyrazolo[1,5-a]pyrimidine-3-carbonitrile] was tested, and the inhibition at 10 µM [1] was 79%.

`N#Cc1cnn2c1N(C(=O)CCN1CCN(Cc3ccc(Cl)cc3)CC1)CC=C2c1cccc(C(F)(F)F)c1` [Example 85, 4-[3-[(4-Chlorophenyl)methyl]-1-piperazinyl]-1-oxopropyl]dihydro-7-[3-(trifluoromethyl)phenyl]pyrazolo[1,5-a]pyrimidine-3-carbonitrile, dihydrochloride] gave an inhibition at 10 µM [1] of 85%.

For `CN(C)CCN1CCN(CC(=O)N2CC=C(c3cccc(C(F)(F)F)c3)n3ncc(C#N)c32)CC1` [Example 97, 4-[[4-[2-(Dimethylamino)ethyl]-1-piperazinyl]acetyl]4,5-dihydro-7-[3-(trifluoromethyl)phenyl]pyrazolo[1,5-a]pyrimidine-3-carbonitrile. dihydrochloride], the inhibition at 10 µM [1] was 72%.

With `N#Cc1cnn2c1N(C(=O)CN1CCN(C(=O)Nc3ccccc3)CC1)CC=C2c1cccc(C(F)(F)F)c1` [Example 99, 4-[2-[3-Cyano-7-[3-(trifluoromethyl)phenyl]pyrazolo-[1,5-a]pyrimidin-4(5H)-yl]-2-oxoethyl]-N-phenyl-1-piperazinecarboxamide] the “% Inhibition (3H-benzodiazepine binding)” value [2] was 24% and the “MABP/mmHg (mean arterial blood pressure)” value [3] was 125 mmHg.

With `COc1ccc(Cl)cc1NC(=O)CN1CCN(CC(=O)N2CC=C(c3cccc(C(F)(F)F)c3)n3ncc(C#N)c32)CC1` [Example 100, N-(5-Chloro-2-methoxyphenyl)-4-[2-[3-cyano-7-[3-(trifluoromethyl)phenyl]pyrazolo[1.5-a]pyrimidin-4(5H)-yl]-2-oxoethyl]-1-piperazineacetamide] the “% Inhibition (3H-benzodiazepine binding)” value [2] was 15% and the “MABP/mmHg (mean arterial blood pressure)” value [3] was 139 mmHg.
